The results in this text go back to patent publication US20230276831A1, “Food/Beverage Article” (Kikkoman Corporation, priority 2020, published 2023).

Type in all cases: cell-based
In assay [1] the test system is Bacillus coagulans (IFO12714). Description: Antimicrobial action of licoricidin on flat sour bacteria in Japanese seasoned soup stock (Test Example 8). On the set-up: key to Evaluation (antimicrobial activity by comparing the pHs): A: There is no change in pH as compared with the control.; B: The pH decreases as compared with the control. The conditions noted are these: for pH: Japanese seasoned soup stock (salt 3% (w/v), alcohol 0.4% (v/v), pH 5.2), cultured at 45° C. for 7 days; for Evaluation (antimicrobial activity by comparing the pHs): Japanese seasoned soup stock. On the procedure:
Specifically, components contained in dried bonito was extracted with water; Koikuchi soy sauce (produced by Kikkoman Corporation), sugar, and salt were blended with the obtained extract; and the resulting mixture was heated to produce Japanese seasoned soup stock. The salt concentration of the obtained Japanese seasoned soup stock was 3% (w/v), the alcohol concentration was 0.4% (v/v), and the pH was 5.2.
Licoricidin (produced by ChemFaces) was added to the produced Japanese seasoned soup stock to concentrations of 1 ppm, 5 ppm, 10 ppm, 25 ppm, and 50 ppm. Flat sour bacteria (Bacillus coagulans (IFO12714)) were then added to 10^4 to 10^5 cells/mL and cultured at 45° C. for 7 days. Japanese seasoned soup stock to which licoricidin was not added was used as a control, and the antimicrobial activity was evaluated by comparing the pHs. The evaluation was performed using the following criterion.
• A: There is no change in pH as compared with the control. • B: The pH decreases as compared with the control.

Assay [2] deals with Lactobacillus rennini (DSM 20253). Description: Antimicrobial action of oxygen-containing heterocyclic compounds in soy sauce (Test Example 6). The conditions noted are these: Loigolactobacillus rennini, DSM20253, 168 h, salt 4% (w/v), alcohol 5% (v/v). On the procedure:
Commercially available whole soybean soy sauce (produced by Kikkoman Corporation) was electrodialyzed and then concentrated under reduced pressure to produce soy sauce at a salt concentration of 0% (w/v) and an alcohol concentration of 0% (v/v). Then, salt and/or alcohol was added to the above-mentioned obtained soy sauce, and the mixture was then heat-treated to produce soy sauce at a salt concentration of 4% (w/v) and an alcohol concentration of 5% (v/v).
The test substance described in Table 20 was added to the above-mentioned produced soy sauce to concentrations of 1 to 100 ppm. Lactic acid bacteria (Lactobacillus rennini (DSM 20253)) were then added to 10^6 to 10^7 cells/mL and cultured at 30° C. for 7 days. After the culture, the number of lactic acid bacteria was measured using the GAM agar medium “Nissui”. Soy sauce to which licoricidin was not added was used as a control group, and the antimicrobial activity was evaluated in comparison with the number of lactic acid bacteria in the control group. The evaluation was performed using the criterion shown below.
• A: The bacterial count decreases to less than 10% of the bacterial count of the control group. • B: The bacterial count decreases to 10% or more and less than 50% of the bacterial count of control group. • C: The bacterial count decreases to 50% or more and less than 100% of the bacterial count of the control group. • D: The bacterial count is the same as the bacterial count of the control group. • -: Not evaluated

The test system is the same in assay [3]. Nature of the assay: Antimicrobial action of licoricidin in liquid dressing, lightly-pickled vegetables and cooking vinegar (Test Example 9). The conditions noted are these: conclusion of Test Example 9. The text has this:
Specifically, Koikuchi soy sauce (produced by Kikkoman Corporation), table vinegar, mirin, granulated sugar, kelp stock, and water were blended in amounts shown in the following Table 24, and the resulting mixture was heated to produce liquid dressing. The salt concentration of the obtained liquid dressing was 2.6% (w/v), the alcohol concentration was 0.8% (v/v), the pH was 4.2.
Specifically, Usukuchi soy sauce (produced by Kikkoman Corporation), table vinegar, corn syrup, isomerized sugar, salt, granulated sugar, sodium glutamate (MSG), lemon fruit juice, kelp stock, and water were blended in amounts shown in the following Table 25, and the mixture was heated to produce seasoning liquid for lightly-pickled vegetables. Chinese cabbages were fully soaked therein to produce lightly-pickled vegetables. […]
Licoricidin (produced by ChemFaces) was added to each of the above-mentioned produced liquid dressing, lightly-pickled vegetables, and cooking vinegar to concentrations of 1 ppm, 5 ppm, 10 ppm, 25 ppm, and 50 ppm. […] After the culture, the number of lactic acid bacteria was measured using the GAM agar medium “Nissui”. The liquid dressing, the lightly-pickled vegetables, and the cooking vinegar to which licoricidin was not added were used as respective control groups, and the antimicrobial activity was evaluated in comparison with the number of lactic acid bacteria in the control group. […]

Turning to `COc1c(CC=C(C)C)c(O)cc2c1C[C@H](c1ccc(O)c(CC=C(C)C)c1O)CO2` [Licoricidin, 4-[(R)-7-hydroxy-5-methoxy-6-(3-methyl-2-butenyl)chroman-3-yl]-2-(3-methyl-2-butenyl)-1,3-benzenediol], the pH in assay [1] (licoricidin 1 ppm) worked out at 4.1; in assay [1] (licoricidin 5 ppm) it was 4.1; in assay [1] (licoricidin 10 ppm), 5.3; in assay [1] (licoricidin 25 ppm) it was 5.3; in assay [1] (licoricidin 50 ppm), 5.2. Moreover, the “Evaluation (antimicrobial activity by comparing the pHs)” value in assay [1] (licoricidin 1 ppm) is listed as “B”; in assay [1] (licoricidin 5 ppm), “B”; in assay [1] (licoricidin 10 ppm), “A”; in assay [1] (licoricidin 25 ppm) it was “A”; in assay [1] (licoricidin 50 ppm), “A”. The “Antimicrobial activity to flat sour bacteria” value in assay [1] (conclusion of Test Example 8) is “exhibited antimicrobial activity”. For the same compound, the activity at 5 ppm in assay [2] (test substance 5 ppm) is less than 10%. The activity at 10 ppm in assay [2] (test substance 10 ppm) is less than 10%. The activity at 25 ppm in assay [2] (test substance 25 ppm) was less than 10%. Also, in assay [2] (test substance 50 ppm), the activity at 50 ppm is less than 10%. Also, in assay [3], the “Antimicrobial activity to lactic acid bacteria in the various liquid seasonings and the food” value is recorded as “exhibited antimicrobial activity”.
